For the experiment, the target named is T1, hTLR9 (Homo sapiens, UniProt Q9NR96).
T1 sequence (Q9NR96 26-1032): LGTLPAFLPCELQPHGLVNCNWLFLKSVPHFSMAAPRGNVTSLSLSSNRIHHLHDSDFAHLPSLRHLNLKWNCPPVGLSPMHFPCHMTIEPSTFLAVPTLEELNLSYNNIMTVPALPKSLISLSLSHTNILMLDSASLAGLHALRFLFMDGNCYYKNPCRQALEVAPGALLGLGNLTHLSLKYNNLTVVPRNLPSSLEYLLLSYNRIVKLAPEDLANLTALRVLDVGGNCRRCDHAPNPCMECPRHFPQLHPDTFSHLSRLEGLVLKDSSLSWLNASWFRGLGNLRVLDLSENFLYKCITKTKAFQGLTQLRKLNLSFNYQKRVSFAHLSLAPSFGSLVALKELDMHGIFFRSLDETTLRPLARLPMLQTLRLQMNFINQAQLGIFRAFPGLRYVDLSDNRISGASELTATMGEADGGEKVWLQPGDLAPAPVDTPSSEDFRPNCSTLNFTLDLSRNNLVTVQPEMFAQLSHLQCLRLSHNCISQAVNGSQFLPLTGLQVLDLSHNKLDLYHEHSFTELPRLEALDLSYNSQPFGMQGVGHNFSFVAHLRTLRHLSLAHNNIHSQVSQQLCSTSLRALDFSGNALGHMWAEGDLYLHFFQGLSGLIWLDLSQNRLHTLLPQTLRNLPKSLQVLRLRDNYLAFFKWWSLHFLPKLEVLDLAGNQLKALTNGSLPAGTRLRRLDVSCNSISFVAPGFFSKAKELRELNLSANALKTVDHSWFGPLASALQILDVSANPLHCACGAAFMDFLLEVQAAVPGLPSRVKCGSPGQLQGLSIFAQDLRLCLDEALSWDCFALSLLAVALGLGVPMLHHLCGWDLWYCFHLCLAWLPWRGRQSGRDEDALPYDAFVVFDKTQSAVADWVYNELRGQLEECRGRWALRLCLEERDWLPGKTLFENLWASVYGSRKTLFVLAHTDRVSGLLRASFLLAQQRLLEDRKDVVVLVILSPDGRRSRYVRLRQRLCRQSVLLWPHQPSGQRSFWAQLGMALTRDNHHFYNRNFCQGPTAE
As to the kind of experiment: HEK293-Blue-hTLR-9 cells assay (SEAP reporter, ODN2006 stimulation). Further details: host or cells: HEK293 (HEK-Blue hTLR9). The following applies: HEK293-Blue-hTLR9 cells, ODN2006, 20 hrs; read-out: HEK/hTLR9 IC50. Format: cell-based. The essentials:
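HEK293-Blue-hTLR9 cells with NF-κB/AP-1-driven SEAP reporter treated with serially diluted compound (1% DMSO final) plus ODN2006 for 20 h at 37 °C. Supernatant SEAP measured with QUANTI-Blue, 2 h at 37 °C, absorbance 620–655 nm; antagonism seen as reduced reporter signal.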
For `C[C@@H]1CN(c2ccc(C#N)c3ncccc23)C[C@H](CN2CCN(c3ccnc(N4CCN(C)CC4)n3)CC2)O1` [Example 22, 5-((2R,6S)-2-methyl-6-((4-(2-(4-methylpiperazin-1-yl)pyrimidin-4-yl)piperazin-1-yl)methyl)morpholino)quinoline-8-carbonitrile], the IC50 is 0.045 µM.

In the case of `C[C@@H]1CN(c2ccc(C#N)c3ncccc23)C[C@H](CN2CCN(c3ccnc(N4CC(N)C4)n3)CC2)O1` [Example 23, 5-[(2S,6R)-2-[[4-[2-(3-aminoazetidin-1-yl)pyrimidin-4-yl]piperazin-1-yl]methyl]-6-methyl-morpholin-4-yl]quinoline-8-carbonitrile], the IC50 worked out at 0.232 µM.

As for `C[C@@H]1CN(c2ccc(C#N)c3ncccc23)C[C@H](CN2CCN(c3ccnc(N[C@H]4CNC[C@H]4F)n3)CC2)O1` [Example 24, 5-[(2S,6R)-2-[[4-[2-[[(3S,4R)-4-fluoropyrrolidin-3-yl]amino]pyrimidin-4-yl]piperazin-1-yl]methyl]-6-methyl-morpholin-4-yl]quinoline-8-carbonitrile], the IC50 is 0.032 µM.

Consider `C[C@@H]1CN(c2ccc(C#N)c3ncccc23)C[C@H](CN2CCN(c3ccnc(N4CCNCC(O)C4)n3)CC2)O1` (stereo partly drawn) [Example 25, 5-[(2S,6R)-2-[[4-[2-(6-hydroxy-1,4-diazepan-1-yl)pyrimidin-4-yl]piperazin-1-yl]methyl]-6-methyl-morpholin-4-yl]quinoline-8-carbonitrile], for which the IC50 was 0.033 µM.

As to `CO[C@H]1CN(c2nccc(N3CCN(C[C@H]4CN(c5ccc(C#N)c6ncccc56)C[C@@H](C)O4)CC3)n2)C[C@@H]1N` [Example 26, 5-[(2S,6R)-2-[[4-[2-trans-(3-amino-4-methoxy-pyrrolidin-1-yl)pyrimidin-4-yl]piperazin-1-yl]methyl]-6-methyl-morpholin-4-yl]quinoline-8-carbonitrile], the IC50 came out at 0.032 µM.

As to `C[C@@H]1CN(c2ccc(C#N)c3ncccc23)C[C@H](CN2CCN(c3ccnc(N4CCC(N)CC4)n3)CC2)O1` [Example 27, 5-[(2S,6R)-2-[[4-[2-(4-amino-1-piperidyl)pyrimidin-4-yl]piperazin-1-yl]methyl]-6-methyl-morpholin-4-yl]quinoline-8-carbonitrile], the IC50 was 0.043 µM.

With `C[C@@H]1CN(c2ccc(C#N)c3ncccc23)C[C@H](CN2CCN(c3ccnc(NC4CNC4)n3)CC2)O1` [Example 28, 5-[(2S,6R)-2-[[4-[2-(azetidin-3-ylamino)pyrimidin-4-yl]piperazin-1-yl]methyl]-6-methyl-morpholin-4-yl]quinoline-8-carbonitrile], the IC50 worked out at 0.065 µM.

`C[C@@H]1CN(c2ccc(C#N)c3ncccc23)C[C@H](CN2CCN(c3ccnc(N4CCN[C@@H](CO)C4)n3)CC2)O1` [Example 29, 5-[(2S,6R)-2-[[4-[2-[(3R)-3-(hydroxymethyl)piperazin-1-yl]pyrimidin-4-yl]piperazin-1-yl]methyl]-6-methyl-morpholin-4-yl]quinoline-8-carbonitrile]: the IC50 came to 0.051 µM.

Take `C[C@@H]1CN(c2ccc(C#N)c3ncccc23)C[C@H](CN2CCN(c3ccnc(OCCN(C)C)n3)CC2)O1` [Example 30, 5-[(2S,6R)-2-[[4-[2-[2-(dimethylamino)ethoxy]pyrimidin-4-yl]piperazin-1-yl]methyl]-6-methyl-morpholin-4-yl]quinoline-8-carbonitrile]: the IC50 turned out to be 0.25 µM.

As for `C[C@@H]1CN(c2ccc(C#N)c3ncccc23)C[C@H](CN2CCN(c3ccnc(N4CCN(C(=O)[C@@H]5CCCN5)CC4)n3)CC2)O1` [Example 31, 5-[(2R,6S)-2-methyl-6-[[4-[2-[4-[(2S)-pyrrolidine-2-carbonyl]piperazin-1-yl]pyrimidin-4-yl]piperazin-1-yl]methyl]morpholin-4-yl]quinoline-8-carbonitrile], the IC50 was 0.046 µM.

In the case of `C[C@@H]1CN(c2ccc(C#N)c3ncccc23)C[C@H](CN2CCN(c3ccnc(N4CCN(C(=O)CN(C)C)CC4)n3)CC2)O1` [Example 32, 5-[(2S,6R)-2-[[4-[2-[4-[2-(dimethylamino)acetyl]piperazin-1-yl]pyrimidin-4-yl]piperazin-1-yl]methyl]-6-methyl-morpholin-4-yl]quinoline-8-carbonitrile], the IC50 is 0.073 µM.

With `C[C@@H]1CN(c2ccc(C#N)c3ncccc23)C[C@H](CN2CCN(c3cccc(N4CCN(C)CC4)n3)CC2)O1` [Example 33, 5-[(2R,6S)-2-methyl-6-[[4-[6-(4-methylpiperazin-1-yl)-2-pyridyl]piperazin-1-yl]methyl]morpholin-4-yl]quinoline-8-carbonitrile], the IC50 came to 0.116 µM.

`C[C@@H]1CN(c2ccc(C#N)c3ncccc23)C[C@H](CN2CCN(c3ccnc(N4CCN(C(=O)C5CCN5)CC4)n3)CC2)O1` (stereo partly drawn) [Example 34, 5-[(2S,6R)-2-[[4-[2-[4-(azetidine-2-carbonyl)piperazin-1-yl]pyrimidin-4-yl]piperazin-1-yl]methyl]-6-methyl-morpholin-4-yl]quinoline-8-carbonitrile]: the IC50 worked out at 0.071 µM.

`C[C@@H]1CN(c2ccc(C#N)c3ncccc23)C[C@H](CN2CCN(c3cccc(N[C@H]4CNC[C@@H]4F)n3)CC2)O1` [Example 35, 5-[(2S,6R)-2-[[4-[6-[[(3S,4S)-4-fluoropyrrolidin-3-yl]amino]-2-pyridyl]piperazin-1-yl]methyl]-6-methyl-morpholin-4-yl]quinoline-8-carbonitrile]: the IC50 was 0.147 µM.

Regarding `C[C@@H]1CN(c2ccc(C#N)c3ncccc23)C[C@H](CN2CCN(c3cccc(N4CCC(N)CC4)n3)CC2)O1` [Example 36, 5-[(2S,6R)-2-[[4-[6-(4-amino-1-piperidyl)-2-pyridyl]piperazin-1-yl]methyl]-6-methyl-morpholin-4-yl]quinoline-8-carbonitrile], the IC50 came out at 0.118 µM.

On to `C[C@@H]1CN(c2ccc(C#N)c3ncccc23)C[C@H](CN2CCN(c3cccc(N[C@H]4CNC[C@H]4F)n3)CC2)O1` [Example 37, 5-[(2S,6R)-2-[[4-[6-[[(3S,4R)-4-fluoropyrrolidin-3-yl]amino]-2-pyridyl]piperazin-1-yl]methyl]-6-methyl-morpholin-4-yl]quinoline-8-carbonitrile], for which the IC50 is 0.234 µM.

On to `C[C@@H]1CN(c2ccc(C#N)c3ncccc23)C[C@H](CN2CCN(c3cccc(NC4CNC4)n3)CC2)O1` [Example 38], for which the IC50 was determined as 0.097 µM.

Regarding `C[C@@H]1CN(c2ccc(C#N)c3ncccc23)C[C@H](CN2CCN(c3cccc(N4CC(N)C(F)C4)n3)CC2)O1` (stereo partly drawn) [Example 40, 5-[(2S,6R)-2-[[4-[6-(3-amino-4-fluoro-pyrrolidin-1-yl)-2-pyridyl]piperazin-1-yl]methyl]-6-methyl-morpholin-4-yl]quinoline-8-carbonitrile], the IC50 is 0.134 µM.

In the case of `C[C@@H]1CN(c2ccc(C#N)c3ncccc23)C[C@H](CN2CCN(c3cccc(N4CCNCC(O)C4)n3)CC2)O1` (stereo partly drawn) [Example 41, 5-[(2S,6R)-2-[[4-[6-(6-hydroxy-1,4-diazepan-1-yl)-2-pyridyl]piperazin-1-yl]methyl]-6-methyl-morpholin-4-yl]quinoline-8-carbonitrile], the IC50 is 0.15 µM.

`CO[C@H]1CN(c2cccc(N3CCN(C[C@H]4CN(c5ccc(C#N)c6ncccc56)C[C@@H](C)O4)CC3)n2)C[C@H]1N` [Example 42, 5-[(2S,6R)-2-[[4-[6-[(3R,4S)-3-amino-4-methoxy-pyrrolidin-1-yl]-2-pyridyl]piperazin-1-yl]methyl]-6-methyl-morpholin-4-yl]quinoline-8-carbonitrile]: the IC50 came to 0.147 µM.

In the case of `COC1CN(c2ccc(N3CCN(C[C@H]4CN(c5ccc(C#N)c6ncccc56)C[C@@H](C)O4)CC3)cn2)CC1N` (stereo partly drawn) [Example 43, 5-[(2S,6R)-2-[[4-[6-(3-amino-4-methoxy-pyrrolidin-1-yl)-3-pyridyl]piperazin-1-yl]methyl]-6-methyl-morpholin-4-yl]quinoline-8-carbonitrile], the IC50 is 0.119 µM.

For `C[C@@H]1CN(c2ccc(C#N)c3ncccc23)C[C@H](CN2CCN(c3ccc(N4CC(N)C(F)C4)nc3)CC2)O1` (stereo partly drawn) [Example 44, 5-[(2S,6R)-2-[[4-[6-(3-amino-4-fluoro-pyrrolidin-1-yl)-3-pyridyl]piperazin-1-yl]methyl]-6-methyl-morpholin-4-yl]quinoline-8-carbonitrile], the IC50 was 0.164 µM.
